Assay results reported in US20070276134A1, “COMPOSITIONS AND METHODS FOR COMPLEXES OF NUCLEIC ACIDS AND ORGANIC CATIONS” (NASTECH PHARMACEUTICAL COMPANY INC., priority 2006, published 2007).

Assay: LogP determination in n-octanol and water, classical equilibrium partitioning method
Protocol: A LogP determination was performed on the salts in n-octanol and water using the classical equilibrium partitioning method. This was performed to evaluate the hydrophobic physical properties of the peptide and determine if there was a difference in the apparent hydrophobicity of the salt form of the siRNA versus the control of the sodium salt of siRNA.

Row | partitioning as a salt versus partitioning as the sodium salt siRNA complex of DOTAP (1-octanol) | LogP (n-octanol and water, salt form of siRNA) | Substance
1 | distinctly different | – | DOTAP
2 | – | −1.98 | Sodium
